Test results: the NIST ThermoML archive (doi:10.1021/acs.jced.6b00261)
Numbers after ± are expanded uncertainties.

Settings: Liquid, Frequency=8 MHz, Pulse-echo method

C[Si]1(C)O[Si](C)(C)O[Si](C)(C)O[Si](C)(C)O1 [octamethylcyclotetrasiloxane]
Settings | speed of sound [m/s]
299.67 K, 14920 kPa | 1006.8 ± 1.1
299.79 K, 130 kPa | 911.09 ± 1.3
299.8 K, 520 kPa | 913.77 ± 1.3
299.81 K, 980 kPa | 916.96 ± 1.3
299.81 K, 1500 kPa | 920.51 ± 1.3
299.82 K, 1980 kPa | 923.9 ± 1.3
299.83 K, 3440 kPa | 933.79 ± 1.2
299.85 K, 6010 kPa | 950.89 ± 1.2
300.15 K, 10240 kPa | 978.63 ± 1.2
349.96 K, 26230 kPa | 939.02 ± 1.2
349.98 K, 14970 kPa | 866.97 ± 1.2
350 K, 10200 kPa | 832.31 ± 1.3
350.03 K, 6210 kPa | 800.86 ± 1.4
350.04 K, 1960 kPa | 764.8 ± 1.4
350.04 K, 3530 kPa | 778.49 ± 1.4
350.05 K, 960 kPa | 755.62 ± 1.6
350.05 K, 1480 kPa | 760.43 ± 1.6
350.06 K, 530 kPa | 751.64 ± 1.5
350.07 K, 120 kPa | 747.75 ± 0.95
350.35 K, 22660 kPa | 915.86 ± 1.2
399.62 K, 19680 kPa | 784.97 ± 1.3
399.63 K, 15100 kPa | 749.46 ± 1.4
399.64 K, 6070 kPa | 667.98 ± 1.6
399.64 K, 10120 kPa | 706.83 ± 1.5
399.68 K, 3610 kPa | 641.86 ± 1.7
399.69 K, 19290 kPa | 782.02 ± 1.3
399.7 K, 510 kPa | 605.91 ± 1.9
399.7 K, 1030 kPa | 612.25 ± 1.9
399.7 K, 1460 kPa | 617.43 ± 1.9
399.7 K, 2040 kPa | 624.18 ± 1.7
399.71 K, 120 kPa | 600.99 ± 1.3
449.63 K, 960 kPa | 475.36 ± 2.7
449.64 K, 130 kPa | 461.18 ± 2.9
449.64 K, 500 kPa | 467.67 ± 2.7
449.69 K, 1960 kPa | 491.86 ± 2.4
449.7 K, 1490 kPa | 484.22 ± 2.6
449.77 K, 3600 kPa | 516.36 ± 2.2
449.87 K, 5900 kPa | 547.45 ± 2
450 K, 10040 kPa | 596.17 ± 1.8
450.19 K, 15080 kPa | 646.97 ± 1.7
450.23 K, 16420 kPa | 659.13 ± 1.6
499.88 K, 3480 kPa | 398.42 ± 2.9
499.88 K, 6030 kPa | 444.06 ± 2.4
499.91 K, 2030 kPa | 367.4 ± 3.4
499.92 K, 330 kPa | 321.35 ± 5.9
499.92 K, 1490 kPa | 354.75 ± 3.9
499.93 K, 11150 kPa | 515.95 ± 2
499.94 K, 520 kPa | 329.04 ± 5.9
500 K, 10650 kPa | 509.56 ± 2
549.54 K, 5510 kPa | 338.9 ± 3.5
549.55 K, 5070 kPa | 329.01 ± 3.5
549.56 K, 4550 kPa | 317.1 ± 3.7
549.61 K, 3880 kPa | 300.55 ± 3.8
549.97 K, 6640 kPa | 364.29 ± 3.5
